Tests used:
[1] = target: Serine/threonine-protein kinase pim-1 (Homo sapiens) (UniProt P11309); conditions: Compound concentration 1000.0 nM
[2] = target: Beta-2 adrenergic receptor (Homo sapiens) (UniProt P07550); conditions: Compound concentration 10.0 uM
[3] = target: Serine/threonine-protein kinase MRCK gamma (Homo sapiens) (UniProt Q6DT37); conditions: Compound concentration 1000.0 nM
[4] = target: Homeodomain-interacting protein kinase 1 (Homo sapiens) (UniProt Q86Z02); conditions: Compound concentration 1000.0 nM
[5] = target: Casein kinase I isoform alpha-like (Homo sapiens) (UniProt Q8N752); conditions: Compound concentration 1000.0 nM
[6] = target: MAP kinase-activated protein kinase 5 (Homo sapiens) (UniProt Q8IW41); conditions: Compound concentration 1000.0 nM
[7] = target: Mitogen-activated protein kinase kinase kinase 13 (Homo sapiens) (UniProt O43283); conditions: Compound concentration 1000.0 nM
[8] = target: Serine/threonine-protein kinase TAO2 (Homo sapiens) (UniProt Q9UL54); conditions: Compound concentration 1000.0 nM
[9] = target: Alpha-1A adrenergic receptor (Homo sapiens) (UniProt P35348); conditions: Compound concentration 10.0 uM
[10] = target: Mitogen-activated protein kinase kinase kinase 15 (Homo sapiens) (UniProt Q6ZN16); conditions: Compound concentration 1000.0 nM
[11] = target: Cyclin-dependent kinase-like 5 (Homo sapiens) (UniProt O76039); conditions: Compound concentration 1000.0 nM
[12] = system: Tyrosine-protein kinase ABL1 (Homo sapiens), P00519 [H396P]; conditions: Compound concentration 1000.0 nM
[13] = system: Tyrosine-protein kinase ABL1 (Homo sapiens), P00519 [F317L]; conditions: Compound concentration 1000.0 nM
[14] = target: Dual specificity mitogen-activated protein kinase kinase 5 (Homo sapiens) (UniProt Q13163); conditions: Compound concentration 1000.0 nM
[15] = target: Mitogen-activated protein kinase kinase kinase kinase 1 (Homo sapiens) (UniProt Q92918); conditions: Compound concentration 1000.0 nM
[16] = target: Bone morphogenetic protein receptor type-2 (Homo sapiens) (UniProt Q13873); conditions: Compound concentration 1000.0 nM
[17] = target: Cyclin-dependent kinase-like 3 (Homo sapiens) (UniProt Q8IVW4); conditions: Compound concentration 1000.0 nM
[18] = target: D(2) dopamine receptor (Homo sapiens) (UniProt P14416); conditions: Compound concentration 10.0 uM
[19] = target: Tyrosine-protein kinase Fer (Homo sapiens) (UniProt P16591); conditions: Compound concentration 1000.0 nM
[20] = target: Cyclin-dependent kinase 5 (Homo sapiens) (UniProt Q00535); conditions: Compound concentration 1000.0 nM
[21] = target: Insulin-like growth factor 1 receptor (Homo sapiens) (UniProt P08069); conditions: Compound concentration 1000.0 nM
[22] = target: Serine/threonine-protein kinase Nek9 (Homo sapiens) (UniProt Q8TD19); conditions: Compound concentration 1000.0 nM
[23] = target: 5-hydroxytryptamine receptor 5A (Homo sapiens) (UniProt P47898); conditions: Compound concentration 10.0 uM
[24] = target: Phosphatidylinositol 4,5-bisphosphate 3-kinase catalytic subunit alpha isoform (Homo sapiens) (UniProt P42336); conditions: Compound concentration 1000.0 nM
[25] = system: Epidermal growth factor receptor (Homo sapiens), P00533 [G719C]; conditions: Compound concentration 1000.0 nM
[26] = target: Ribosomal protein S6 kinase alpha-6 (Homo sapiens) (UniProt Q9UK32); conditions: Compound concentration 1000.0 nM
[27] = target: Serine/threonine-protein kinase Nek7 (Homo sapiens) (UniProt Q8TDX7); conditions: Compound concentration 1000.0 nM
[28] = target: Protein kinase C delta type (Homo sapiens) (UniProt Q05655); conditions: Compound concentration 1000.0 nM
[29] = target: Mitogen-activated protein kinase kinase kinase 10 (Homo sapiens) (UniProt Q02779); conditions: Compound concentration 1000.0 nM
[30] = target: Mitotic checkpoint serine/threonine-protein kinase BUB1 (Homo sapiens) (UniProt O43683); conditions: Compound concentration 1000.0 nM
[31] = system: Phosphatidylinositol 4,5-bisphosphate 3-kinase catalytic subunit alpha isoform (Homo sapiens), P42336 [M1043I]; conditions: Compound concentration 1000.0 nM
[32] = target: Calcium/calmodulin-dependent protein kinase type 1D (Homo sapiens) (UniProt Q8IU85); conditions: Compound concentration 1000.0 nM
[33] = target: Phosphorylase b kinase gamma catalytic chain, skeletal muscle/heart isoform (Homo sapiens) (UniProt Q16816); conditions: Compound concentration 1000.0 nM
[34] = target: Serine/threonine-protein kinase LATS1 (Homo sapiens) (UniProt O95835); conditions: Compound concentration 1000.0 nM
[35] = target: Sigma intracellular receptor 2 (Homo sapiens, UniProt Q5BJF2); conditions: Compound concentration 10.0 uM
[36] = target: SRSF protein kinase 2 (Homo sapiens) (UniProt P78362); conditions: Compound concentration 1000.0 nM
[37] = target: Casein kinase I isoform gamma-2 (Homo sapiens) (UniProt P78368); conditions: Compound concentration 1000.0 nM
[38] = system: Proto-oncogene tyrosine-protein kinase receptor Ret (Homo sapiens), P07949 [V804L]; conditions: Compound concentration 1000.0 nM
[39] = system: Receptor-type tyrosine-protein kinase FLT3 (Homo sapiens), P36888 [D835V]; conditions: Compound concentration 1000.0 nM
[40] = system: Tyrosine-protein kinase ABL1 (Homo sapiens), P00519 [Q252H]; conditions: Compound concentration 1000.0 nM
[41] = target: RAC-beta serine/threonine-protein kinase (Homo sapiens) (UniProt P31751); conditions: Compound concentration 1000.0 nM
[42] = target: Dual specificity protein kinase CLK2 (Homo sapiens) (UniProt P49760); conditions: Compound concentration 1000.0 nM
[43] = target: Mast/stem cell growth factor receptor Kit (Homo sapiens) (UniProt P10721); conditions: Compound concentration 1000.0 nM
[44] = target: Serine/threonine-protein kinase 32C (Homo sapiens) (UniProt Q86UX6); conditions: Compound concentration 1000.0 nM
[45] = target: Serine/threonine-protein kinase WNK1 (Homo sapiens) (UniProt Q9H4A3); conditions: Compound concentration 1000.0 nM

Insulin-like growth factor 1 receptor (Homo sapiens), sequence (P08069 31-736 limits assumed): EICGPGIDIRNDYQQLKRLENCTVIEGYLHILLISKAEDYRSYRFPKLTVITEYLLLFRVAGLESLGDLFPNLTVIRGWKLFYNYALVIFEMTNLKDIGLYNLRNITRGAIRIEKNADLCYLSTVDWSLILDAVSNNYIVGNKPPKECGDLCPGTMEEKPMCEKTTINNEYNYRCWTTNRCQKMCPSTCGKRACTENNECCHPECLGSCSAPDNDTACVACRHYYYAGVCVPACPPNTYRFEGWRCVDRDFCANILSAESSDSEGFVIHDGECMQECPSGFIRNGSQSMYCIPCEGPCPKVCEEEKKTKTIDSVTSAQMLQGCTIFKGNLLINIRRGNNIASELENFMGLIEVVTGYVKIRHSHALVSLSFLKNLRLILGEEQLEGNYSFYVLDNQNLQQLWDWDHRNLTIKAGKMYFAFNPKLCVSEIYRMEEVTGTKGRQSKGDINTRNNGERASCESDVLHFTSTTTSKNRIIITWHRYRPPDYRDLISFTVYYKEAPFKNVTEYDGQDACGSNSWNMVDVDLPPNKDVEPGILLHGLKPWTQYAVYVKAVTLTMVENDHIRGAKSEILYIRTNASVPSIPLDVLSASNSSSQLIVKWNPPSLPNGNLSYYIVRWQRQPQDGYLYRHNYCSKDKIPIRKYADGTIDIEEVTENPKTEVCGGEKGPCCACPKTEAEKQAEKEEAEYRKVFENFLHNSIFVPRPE
Insulin-like growth factor 1 receptor (Homo sapiens), sequence (P08069 741-1367 limits assumed): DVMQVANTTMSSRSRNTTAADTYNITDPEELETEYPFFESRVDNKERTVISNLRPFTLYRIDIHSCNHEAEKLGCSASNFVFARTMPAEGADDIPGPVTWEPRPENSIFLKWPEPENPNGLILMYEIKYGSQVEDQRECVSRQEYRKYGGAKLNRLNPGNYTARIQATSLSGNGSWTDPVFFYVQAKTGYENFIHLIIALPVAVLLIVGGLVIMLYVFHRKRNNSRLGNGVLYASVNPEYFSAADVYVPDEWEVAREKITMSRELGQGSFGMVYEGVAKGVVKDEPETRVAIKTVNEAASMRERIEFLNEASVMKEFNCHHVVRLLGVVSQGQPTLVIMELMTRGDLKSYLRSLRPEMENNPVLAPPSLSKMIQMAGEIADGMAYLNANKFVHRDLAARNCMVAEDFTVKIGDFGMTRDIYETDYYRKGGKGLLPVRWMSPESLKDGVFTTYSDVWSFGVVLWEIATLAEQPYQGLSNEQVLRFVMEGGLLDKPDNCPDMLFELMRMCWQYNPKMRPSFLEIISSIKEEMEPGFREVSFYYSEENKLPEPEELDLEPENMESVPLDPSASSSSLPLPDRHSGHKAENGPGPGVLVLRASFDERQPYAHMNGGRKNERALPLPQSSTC
Proto-oncogene tyrosine-protein kinase receptor Ret (Homo sapiens), P07949 [V804L], sequence (P07949 whole entry V804L): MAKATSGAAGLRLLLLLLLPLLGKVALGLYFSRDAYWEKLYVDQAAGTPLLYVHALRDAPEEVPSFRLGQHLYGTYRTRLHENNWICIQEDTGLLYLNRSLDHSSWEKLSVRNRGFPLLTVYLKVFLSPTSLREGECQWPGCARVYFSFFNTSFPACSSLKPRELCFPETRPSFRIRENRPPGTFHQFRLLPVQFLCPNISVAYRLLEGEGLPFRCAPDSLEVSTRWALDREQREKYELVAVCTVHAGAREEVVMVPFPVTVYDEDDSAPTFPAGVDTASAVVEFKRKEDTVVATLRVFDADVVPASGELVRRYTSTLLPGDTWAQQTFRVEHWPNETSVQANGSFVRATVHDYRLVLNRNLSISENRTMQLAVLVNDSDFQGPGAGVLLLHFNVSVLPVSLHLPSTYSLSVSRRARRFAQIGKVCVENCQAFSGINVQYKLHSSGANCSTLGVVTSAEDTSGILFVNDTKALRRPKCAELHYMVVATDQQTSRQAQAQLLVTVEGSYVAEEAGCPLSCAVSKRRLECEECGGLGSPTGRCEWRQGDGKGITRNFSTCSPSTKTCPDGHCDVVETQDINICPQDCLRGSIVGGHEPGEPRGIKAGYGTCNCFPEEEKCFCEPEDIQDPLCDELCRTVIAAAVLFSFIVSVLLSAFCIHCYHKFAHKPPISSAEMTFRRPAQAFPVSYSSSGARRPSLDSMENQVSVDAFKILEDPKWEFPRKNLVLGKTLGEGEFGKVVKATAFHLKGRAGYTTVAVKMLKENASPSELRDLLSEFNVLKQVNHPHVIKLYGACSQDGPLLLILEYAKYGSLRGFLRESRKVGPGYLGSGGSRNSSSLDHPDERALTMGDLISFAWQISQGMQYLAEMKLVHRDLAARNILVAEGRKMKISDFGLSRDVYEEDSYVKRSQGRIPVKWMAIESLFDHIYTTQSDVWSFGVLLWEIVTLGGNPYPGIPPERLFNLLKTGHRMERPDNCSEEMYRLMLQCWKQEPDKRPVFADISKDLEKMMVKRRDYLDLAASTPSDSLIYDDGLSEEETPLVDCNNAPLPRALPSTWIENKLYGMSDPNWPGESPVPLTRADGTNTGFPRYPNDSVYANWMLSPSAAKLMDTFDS
5-hydroxytryptamine receptor 5A (Homo sapiens), sequence (P47898 whole entry, canonical isoform): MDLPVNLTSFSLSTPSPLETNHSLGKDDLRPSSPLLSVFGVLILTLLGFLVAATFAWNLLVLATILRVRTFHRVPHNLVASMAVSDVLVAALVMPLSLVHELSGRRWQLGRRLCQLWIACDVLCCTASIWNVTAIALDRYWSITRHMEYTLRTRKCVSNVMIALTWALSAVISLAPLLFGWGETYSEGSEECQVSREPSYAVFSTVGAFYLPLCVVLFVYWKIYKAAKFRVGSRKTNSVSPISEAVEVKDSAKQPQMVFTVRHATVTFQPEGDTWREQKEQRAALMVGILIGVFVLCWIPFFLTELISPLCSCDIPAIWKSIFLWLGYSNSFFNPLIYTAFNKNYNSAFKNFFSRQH
Mitogen-activated protein kinase kinase kinase 10 (Homo sapiens), sequence (Q02779 whole entry, looked up): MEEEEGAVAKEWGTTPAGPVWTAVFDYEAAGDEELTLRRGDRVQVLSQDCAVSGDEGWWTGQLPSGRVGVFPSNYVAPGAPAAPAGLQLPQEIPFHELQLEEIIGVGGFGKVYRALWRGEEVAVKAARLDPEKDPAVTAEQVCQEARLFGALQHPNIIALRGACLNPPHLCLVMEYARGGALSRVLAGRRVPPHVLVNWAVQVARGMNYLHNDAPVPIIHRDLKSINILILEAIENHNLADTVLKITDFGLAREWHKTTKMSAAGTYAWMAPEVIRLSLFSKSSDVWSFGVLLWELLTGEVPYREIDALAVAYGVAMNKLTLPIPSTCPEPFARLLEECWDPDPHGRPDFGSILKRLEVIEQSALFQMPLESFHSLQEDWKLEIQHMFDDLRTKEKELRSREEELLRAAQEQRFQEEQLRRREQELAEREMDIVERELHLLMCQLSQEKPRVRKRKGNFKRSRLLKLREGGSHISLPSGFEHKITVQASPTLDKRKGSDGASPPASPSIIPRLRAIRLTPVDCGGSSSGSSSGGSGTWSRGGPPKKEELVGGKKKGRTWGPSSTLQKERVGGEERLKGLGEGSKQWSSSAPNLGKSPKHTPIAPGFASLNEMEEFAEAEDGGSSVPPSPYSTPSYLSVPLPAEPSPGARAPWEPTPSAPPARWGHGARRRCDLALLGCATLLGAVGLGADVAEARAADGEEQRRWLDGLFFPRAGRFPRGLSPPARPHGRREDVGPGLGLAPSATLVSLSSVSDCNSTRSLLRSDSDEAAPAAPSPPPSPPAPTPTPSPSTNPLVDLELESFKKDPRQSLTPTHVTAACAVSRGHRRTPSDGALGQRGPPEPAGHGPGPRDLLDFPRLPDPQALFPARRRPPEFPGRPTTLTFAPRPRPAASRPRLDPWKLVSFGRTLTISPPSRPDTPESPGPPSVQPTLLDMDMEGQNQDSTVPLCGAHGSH
MAP kinase-activated protein kinase 5 (Homo sapiens), sequence (Q8IW41 whole entry): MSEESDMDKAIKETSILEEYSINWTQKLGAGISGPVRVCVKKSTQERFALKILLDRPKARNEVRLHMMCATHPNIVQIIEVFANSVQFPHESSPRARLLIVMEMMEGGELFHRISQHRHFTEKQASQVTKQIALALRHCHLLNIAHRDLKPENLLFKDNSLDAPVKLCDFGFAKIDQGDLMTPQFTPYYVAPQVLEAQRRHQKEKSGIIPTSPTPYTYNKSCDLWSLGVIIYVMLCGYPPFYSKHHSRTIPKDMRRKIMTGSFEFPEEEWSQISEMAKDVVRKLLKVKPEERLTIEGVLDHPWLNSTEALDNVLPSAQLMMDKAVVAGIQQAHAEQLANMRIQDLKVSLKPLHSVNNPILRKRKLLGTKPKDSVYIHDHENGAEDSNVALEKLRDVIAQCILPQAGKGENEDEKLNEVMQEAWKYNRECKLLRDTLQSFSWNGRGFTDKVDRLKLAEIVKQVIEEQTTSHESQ
SRSF protein kinase 2 (Homo sapiens), sequence (P78362 whole entry, looked up, canonical isoform): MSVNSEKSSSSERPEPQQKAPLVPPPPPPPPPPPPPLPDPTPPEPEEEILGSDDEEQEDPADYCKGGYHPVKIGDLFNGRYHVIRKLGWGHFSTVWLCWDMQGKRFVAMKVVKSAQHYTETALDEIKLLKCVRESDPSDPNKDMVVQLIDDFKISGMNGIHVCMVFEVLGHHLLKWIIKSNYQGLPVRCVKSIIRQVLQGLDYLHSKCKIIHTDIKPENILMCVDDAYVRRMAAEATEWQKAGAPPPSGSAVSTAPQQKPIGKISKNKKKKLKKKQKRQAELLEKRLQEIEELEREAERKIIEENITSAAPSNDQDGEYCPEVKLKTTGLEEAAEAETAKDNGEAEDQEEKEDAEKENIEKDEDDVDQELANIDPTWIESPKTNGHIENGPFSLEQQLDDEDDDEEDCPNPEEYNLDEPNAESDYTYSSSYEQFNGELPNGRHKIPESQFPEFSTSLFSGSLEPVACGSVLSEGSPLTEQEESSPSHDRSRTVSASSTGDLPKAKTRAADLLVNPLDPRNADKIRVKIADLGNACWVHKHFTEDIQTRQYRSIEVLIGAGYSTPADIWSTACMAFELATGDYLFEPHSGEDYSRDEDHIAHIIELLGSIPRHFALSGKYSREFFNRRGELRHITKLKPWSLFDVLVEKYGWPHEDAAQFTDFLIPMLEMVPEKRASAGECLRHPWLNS

Question: Which results are given for C[C@H](NC(=O)c1cnc2n1[C@](C)(Cc1ccc(C#N)cc1)C(=O)N2c1cc(Cl)c(F)c(Cl)c1)C(=O)NC1(c2ccccn2)CC1 [BI 1950]?
Answer: residual activity [1]: 100%; inhibition [2]: -9.72%; residual activity [3]: 100%; residual activity [4]: 97%; residual activity [5]: 100%; residual activity [6]: 96%; residual activity [7]: 100%; residual activity [8]: 92%; inhibition [9]: -8.89%; residual activity [10]: 76%; residual activity [11]: 100%; residual activity [12]: 83%; residual activity [13]: 100%; residual activity [14]: 100%; residual activity [15]: 100%; residual activity [16]: 100%; residual activity [17]: 100%; inhibition [18]: 7.62%; residual activity [19]: 100%; residual activity [20]: 100%; residual activity [21]: 99%; residual activity [22]: 100%; inhibition [23]: 6.14%; residual activity [24]: 100%; residual activity [25]: 100%; residual activity [26]: 100%; residual activity [27]: 100%; residual activity [28]: 100%; residual activity [29]: 100%; residual activity [30]: 100%; residual activity [31]: 100%; residual activity [32]: 99%; residual activity [33]: 100%; residual activity [34]: 100%; inhibition [35]: 25.9%; residual activity [36]: 100%; residual activity [37]: 90%; residual activity [38]: 100%; residual activity [39]: 100%; residual activity [40]: 90%; residual activity [41]: 100%; residual activity [42]: 97%; residual activity [43]: 100%; residual activity [44]: 100%; residual activity [45]: 100%

Question: Which residual activity [1] does the source give for C[C@@]1(Cc2ccc(C#N)cc2)C(=O)N(c2cc(Cl)cc(Cl)c2)c2ncc(C(=O)NC3(c4nc(C5CCC5)no4)CC3)n21 [BI 9446] here?
Answer: 100%

Question: What about the inhibition [2] of the same compound?
Answer: -7.08%

Question: What about the residual activity [3] of the same compound?
Answer: 100%

Question: And the residual activity [4]?
Answer: 100%

Question: What about the residual activity [5] of the same compound?
Answer: 89%

Question: And the residual activity [6]?
Answer: 100%

Question: What about the residual activity [7] of the same compound?
Answer: 100%

Question: What about the residual activity [8] of the same compound?
Answer: 100%

Question: And the inhibition [9]?
Answer: -1.65%

Question: What about the residual activity [10] of the same compound?
Answer: 81%

Question: What about the residual activity [11] of the same compound?
Answer: 100%

Question: What about the residual activity [12] of the same compound?
Answer: 100%

Question: What about the residual activity [13] of the same compound?
Answer: 86%

Question: What about the residual activity [14] of the same compound?
Answer: 100%

Question: What about the residual activity [15] of the same compound?
Answer: 100%

Question: What about the residual activity [16] of the same compound?
Answer: 100%

Question: And the residual activity [17]?
Answer: 100%

Question: And the inhibition [18]?
Answer: 16.4%

Question: What about the residual activity [19] of the same compound?
Answer: 100%

Question: What about the residual activity [20] of the same compound?
Answer: 100%

Question: And the residual activity [21]?
Answer: 100%

Question: And the residual activity [22]?
Answer: 86%

Question: And the inhibition [23]?
Answer: 2.14%

Question: What about the residual activity [24] of the same compound?
Answer: 87%

Question: And the residual activity [25]?
Answer: 100%

Question: What about the residual activity [26] of the same compound?
Answer: 100%

Question: What about the residual activity [27] of the same compound?
Answer: 100%

Question: What about the residual activity [28] of the same compound?
Answer: 100%

Question: What about the residual activity [29] of the same compound?
Answer: 100%

Question: And the residual activity [30]?
Answer: 100%

Question: And the residual activity [31]?
Answer: 100%

Question: What about the residual activity [32] of the same compound?
Answer: 100%

Question: What about the residual activity [33] of the same compound?
Answer: 100%

Question: And the residual activity [34]?
Answer: 96%

Question: And the inhibition [35]?
Answer: 58%

Question: And the residual activity [36]?
Answer: 100%

Question: And the residual activity [37]?
Answer: 91%

Question: What about the residual activity [38] of the same compound?
Answer: 100%

Question: And the residual activity [39]?
Answer: 100%

Question: What about the residual activity [40] of the same compound?
Answer: 89%

Question: And the residual activity [41]?
Answer: 100%

Question: And the residual activity [42]?
Answer: 100%

Question: And the residual activity [43]?
Answer: 100%

Question: And the residual activity [44]?
Answer: 99%

Question: What about the residual activity [45] of the same compound?
Answer: 99%
